Experimental data taken from paper PMC11356571, “The Comparative Metabolism of a Novel Hepatocellular Carcinoma Therapeutic Agent, 2,3-Diamino-N-(4-(benzo[d]thiazol-2-yl)phenyl)propanamide, in Human and Animal Hepatocytes” (Metabolites, 2024).

What was measured:
[1] = Metabolic stability in monkey hepatocytes; format: in vitro ADME; conditions: cryopreserved hepatocytes
Protocol: (§1) Cryopreserved hepatocytes were carefully thawed in a 37 °C water bath for approximately 1 min, and transferred to a tube containing pre-warmed thawing medium. The supernatants were removed and the pellets were resuspended in KHB at a final cell density of 1 × 10^6 cells/mL, based on hemocytometer counting using trypan blue exclusion. A ETN101 solution was prepared by dissolving ETN101 in water at 4 mM and diluted by KHB at the concentration of 4 μM of ETN101. Sixty microliters each of hepatocyte suspensions and 4 μM of ETN101 were added in a 96-well plate and incubated for 0, 5, 15, 30, and 45 min at 37 °C in a CO2 incubator. All incubations were conducted in triplicates. Reactions were terminated by the addition of 120 μL of ice-cold acetonitrile and followed by vortex mixing. After centrifugation at 13,000 rpm for 8 min at 4 °C, 5 μL of internal standard (IS, camptothecin in acetonitrile at 780 ng/mL) was added to 60 μL of supernatant. A 2 μL aliquot was injected into the LC-MS/MS system. The reliability of the analysis was confirmed by incorporating three different levels of quality control samples at the beginning and end of each analytical batch. The disappearance rate (k) of ETN101 was calculated by determined peak area ratio of ETN101 to IS over incubation period. Subsequently, half-life (t1/2), intrinsic clearance (Clint), and intrinsic hepatic clearance (Clint,hep) of ETN101 in human and animal hepatocytes were calculated using the following equation [34]: t1/2(min)=ln2/−k(elimination slope) ClintμL/min/10^6 cells=ln2/t1/2×μL incubation/hepatocytes (10^6 cells) Clint,hepmL/min/kg=Clint/1000×A×10^6 cells/g liver×B g liver/kg body weight […]
(§2) For the metabolic stability assay, an LC-MS/MS system was employed, consisting of an Agilent 1260 series HPLC system (Agilent Technologies Inc., Santa Clara, CA, USA) coupled to an API 4000 mass spectrometer (AB SCIEX, Concord, Vaughan, ON, Canada) equipped with a turbo electrospray interface. […] ETN101 and IS were detected using multiple reaction monitoring (MRM) mode under positive electrospray ionization (ESI). […]

[2] = Metabolic stability in rat hepatocytes; format: in vitro ADME; conditions: cryopreserved hepatocytes
Protocol: as §1, §2

- half-life at 2 µM ([1]; 45 min incubation at 37 °C): 1.22 h
- hepatocyte CLint at 2 µM ([1]; 45 min incubation at 37 °C): 19 µL/min/1e6 cells
- CLint scaled at 2 µM ([1]; scaled from Clint): 45.7 mL/min/kg
- half-life at 2 µM ([2]; 45 min incubation at 37 °C): 1.15 h
- hepatocyte CLint at 2 µM ([2]; 45 min incubation at 37 °C): 20.1 µL/min/1e6 cells
- CLint scaled at 2 µM ([2]; scaled from Clint): 94.1 mL/min/kg
Compound: NCC(N)C(=O)Nc1ccc(-c2nc3ccccc3s2)cc1 (stereo not drawn) [ETN101, 2,3-diamino-N-(4-(benzo[d]thiazol-2-yl)phenyl)propanamide]
